Eight molecules from ChEMBL document CHEMBL1201862, “PubChem BioAssay data set” (2004) can be followed below.

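Briefly, cells in 96-well plates were exposed to five compound concentrations for 48 h, and endpoints were estimated by linear interpolation. GI50 is the concentration that inhibits growth by half.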 The source made the active and inactive calls. No stated cut-off is given here; in the data, active = GI50 up to about 1.1 µM and inactive = higher. Bounds are passed on as bounds.

Common to all, as to assay: growth of human tumour cells (NCI), 48 h
Experiment [1] deals with M14.
Experiment [2] concerns T47D.
In experiment [3] the test system is OVCAR-4.
Experiment [4] concerns SK-MEL-28.
For experiment [5], the system named is EKVX.
Experiment [6] concerns HL-60.
Experiment [7] has as its system SR.
For experiment [8], the system named is CAKI-1.
For experiment [9], the system named is OVCAR-5.
Experiment [10] deals with MOLT-4.
Experiment [11] relates to OVCAR-3.
Experiment [12] concerns HT-29.
Experiment [13] relates to Hs-578T.
The test system of experiment [14] is UACC-257.
The test system of experiment [15] is DU-145.
For experiment [16], the system named is OVCAR-8.
In experiment [17] the test system is SW-620.
For experiment [18], the system named is HCC 2998.
Experiment [19] has as its system SF-539.
For experiment [20], the system named is HOP-92.

`COc1ccc(C(O)(c2ccccc2)c2nccc3ccccc23)cc1` (configuration not stated): the GI50 in experiment [1] is 2.76 µM (inactive); in [2] it was 36.8 µM (inactive); in experiment [3], 11 µM (inactive); in experiment [4] it was 41.4 µM (inactive); in experiment [5], 11.9 µM (inactive); in [6], 2.32 µM (inactive). The GI50 was 7.74 µM (inactive) in [7]; 8 µM (inactive) in experiment [8]; 11.5 µM (inactive) in experiment [9]; 2.29 µM (inactive) in experiment [10]; 2.48 µM (inactive) in [11]; 7.46 µM (inactive) in [12]. Moreover, the GI50 in experiment [13] was 4.71 µM (inactive); in experiment [14], 7.74 µM (inactive); in [15], 6.22 µM (inactive); in [16], 18.1 µM (inactive).

As for `Cc1nc(N)c(N2CCN(Cc3ccccc3)CC2)c(O)n1`, the GI50 in experiment [1], in [2], in experiment [17], in [4], in experiment [5] and in [6] was > 100 µM (inactive) throughout. Further, the GI50 in experiment [7], in experiment [9], in experiment [10], in experiment [11], in [12] and in [13] was > 100 µM (inactive) in each case. Besides, the GI50 in experiment [14], in experiment [15], in [16], in [18] and in experiment [19] was > 100 µM (inactive) in each case.

As for `C[N+]1(C)CC=C(N2CCOCC2)CC1`, the GI50 in [1], in experiment [2], in [3], in experiment [17], in experiment [4] and in [5] was > 10 µM (inactive) throughout. Also, the GI50 in [6], in experiment [7], in experiment [8], in experiment [10], in experiment [11] and in experiment [12] was > 10 µM (inactive) in each case. The GI50 in [13], in experiment [14], in experiment [15], in experiment [16], in [18] and in [19] was > 10 µM (inactive) in each case.

Take `S=C(Nc1cccc(Cl)c1)Nc1ccccn1`: the GI50 was > 100 µM (inactive) in experiment [1]; > 100 µM (inactive) in [2]; > 100 µM (inactive) in experiment [3]; > 100 µM (inactive) in [17]; > 100 µM (inactive) in experiment [4]; 82 µM (inactive) in experiment [5]. In addition, the GI50 in [6], in experiment [7], in experiment [8], in experiment [9], in [10] and in experiment [11] was > 100 µM (inactive) each time. The GI50 in [12], in experiment [13], in experiment [14], in [15], in experiment [16] and in experiment [19] was > 100 µM (inactive) each time.

For the molecule `Cn1c(S)nc(C(N)=O)c1N`, the GI50 is > 100 µM (inactive) in experiment [1]; 72.4 µM (inactive) in [2]; > 100 µM (inactive) in experiment [3]; > 100 µM (inactive) in [17]; > 100 µM (inactive) in experiment [4]; > 100 µM (inactive) in [5]. Further, the GI50 in experiment [6], in experiment [7], in experiment [9], in experiment [10], in experiment [11] and in experiment [12] was > 100 µM (inactive) in each case. Also, the GI50 in experiment [13], in experiment [15], in [16], in experiment [18] and in experiment [19] was > 100 µM (inactive) in each case.

Regarding `O=[N+]([O-])c1cccc(/C=N/N=c2\ccc3ccccc3[nH]2)c1O`, the GI50 in experiment [1] was 1.13 µM (inactive); in experiment [2], 0.807 µM (active); in [3], 1.07 µM (active); in experiment [17], 0.632 µM (active); in [4], 2.79 µM (inactive); in [5], 1.48 µM (inactive). Also, the GI50 was 0.619 µM (active) in [6]; 0.466 µM (active) in experiment [7]; 0.665 µM (active) in [8]; 3.08 µM (inactive) in [9]; 0.83 µM (active) in experiment [10]; 0.185 µM (active) in experiment [11]. In addition, the GI50 in [12] is 0.632 µM (active); in experiment [13] it was 16.2 µM (inactive); in [20] it was 7.5 µM (inactive); in [14], 2.28 µM (inactive); in experiment [15], 2.26 µM (inactive); in experiment [16] it was 2.21 µM (inactive). In addition, the GI50 in experiment [19] was 1.84 µM (inactive).

`CC1(C)CCCCCCCCCC2CC2CCC(C)(C)C1=O` (configuration not stated): the GI50 in [1] is 18.8 µM (inactive); in experiment [2] it was 18.9 µM (inactive); in [3] it was 32.9 µM (inactive); in [17], 35.9 µM (inactive); in experiment [4], 25.9 µM (inactive); in experiment [5] it was 20.2 µM (inactive). Moreover, the GI50 in [6] is 22 µM (inactive); in experiment [7], 6.59 µM (inactive); in experiment [8], 33.5 µM (inactive); in experiment [9], 21.2 µM (inactive); in [10], 28.5 µM (inactive); in experiment [11] it was 12.7 µM (inactive). Moreover, the GI50 in experiment [12] was 20.3 µM (inactive); in [13] it was 31.3 µM (inactive); in [20] it was 26.3 µM (inactive); in [14] it was 23.6 µM (inactive); in experiment [15], 20.5 µM (inactive); in [16], 30.2 µM (inactive). Besides, in experiment [19], the GI50 was 18.8 µM (inactive).

With `COc1nc(C#CC2(O)CCCCC2)nc(OC)n1`, the GI50 in [1] was 8.65 µM (inactive); in experiment [2] it was 30.5 µM (inactive); in experiment [3] it was 1.87 µM (inactive); in experiment [17] it was 8.91 µM (inactive); in experiment [4] it was 13.9 µM (inactive); in experiment [5], 18.1 µM (inactive). The GI50 in experiment [6] is 2.64 µM (inactive); in experiment [7], 3.47 µM (inactive); in [8] it was 4.19 µM (inactive); in experiment [9] it was 12.7 µM (inactive); in experiment [10], 3.53 µM (inactive); in experiment [11] it was 8.15 µM (inactive). The GI50 in [12] was 11.7 µM (inactive); in experiment [13], 11.5 µM (inactive); in experiment [14] it was 14.6 µM (inactive); in experiment [15], 6.79 µM (inactive); in [16], 13 µM (inactive); in [19] it was 9.16 µM (inactive).
